Test results as given in patent publication US20250108038A1 (priority 2023, published 2025).
Where two headings read alike, the source gives them in different places.

Experiments:
OCT1 = target: T1, OCT1 (Homo sapiens, UniProt O15245); experiment: Uptake transporter inhibition assay, OCT1 (sumatriptan)
T1 sequence (O15245 1-554): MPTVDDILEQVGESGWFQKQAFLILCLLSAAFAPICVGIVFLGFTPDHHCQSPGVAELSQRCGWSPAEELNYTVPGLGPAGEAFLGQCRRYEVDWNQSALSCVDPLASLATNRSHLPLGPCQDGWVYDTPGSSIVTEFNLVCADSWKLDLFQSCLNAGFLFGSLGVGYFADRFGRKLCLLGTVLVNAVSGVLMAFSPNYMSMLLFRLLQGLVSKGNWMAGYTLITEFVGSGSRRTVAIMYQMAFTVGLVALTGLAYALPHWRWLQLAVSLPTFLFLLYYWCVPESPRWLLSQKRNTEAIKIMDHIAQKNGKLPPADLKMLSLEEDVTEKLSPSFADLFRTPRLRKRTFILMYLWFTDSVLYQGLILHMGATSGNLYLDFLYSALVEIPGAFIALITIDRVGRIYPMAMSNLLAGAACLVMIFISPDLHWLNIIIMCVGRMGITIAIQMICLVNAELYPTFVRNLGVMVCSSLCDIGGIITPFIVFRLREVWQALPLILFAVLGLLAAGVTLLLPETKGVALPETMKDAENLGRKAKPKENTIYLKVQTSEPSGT
Method: Uptake experiments were performed using HEK293 cells stably expressing the respective uptake transporters. The assays were conducted according to the actual SOLVO uptake transporter assay protocols (PR-ASY-UPT-General Protocol for Uptake Transporter Inhibition Assays).
Cells were cultured at 37° C. in a humidified atmosphere containing 5% CO2 and were plated onto standard 96-well tissue culture plates.
Before the experiment, the medium was removed, and the cells were washed twice with 100 μL of pre-warmed (37° C.) assay buffer listed in Table 15. The cells were pre-incubated at 37° C. for 30 minutes in assay buffer containing the test article at appropriate concentrations (Table 16), appropriate solvents for solvent controls and the reference inhibitor for reference inhibitor wells. After the pre-incubation step solutions were removed. Uptake experiments were performed at 37° C. in 50 μL of assay buffer containing the probe substrate and the test article or solvent and controls.
After the experiment, cells were washed twice with 100 μL of appropriate cold buffer and lysed with 150 μL scintillation cocktail. Radiolabeled probe substrate transport was determined by liquid scintillation counting.
Uptake of the probe substrate in control cells provided background activity values for all data points.

Wistar rats = assay type: in vivo, Wistar rat; conditions: for % hit rate: nicotine 0.05-0.2 mg/kg sc, Compound I-4 0.1-3.0 mg/kg ip, Compound I-19 0.03-1.0 mg/kg ip; for % correct / Magazine Head Entries / Omissions / number of trials completed / perseverative responses / premature responses / response latencies (correct, incorrect) / reward latencies / timeout responses: same doses
Method: Animals were trained in eight automated 5C-SRTT operant chambers (Med Associates, St. Albans, VT, USA), controlled by MedPC software (Med Associates). Briefly, each operant chamber was equipped with 5 apertures containing a photocell beam to detect nose pokes and a lamp (2.8 W) that could be illuminated randomly at varying durations. Food pellets (45 mg chow pellet, BioServ, Frenchtown, NJ, USA) were delivered automatically to a magazine, located on the opposite wall to the nose pokes, that was also equipped with a light that turned on to indicate that a pellet had been dispensed. The house-light remained on for the entire session unless an error or omission occurred. Training sessions began with the delivery of a food reward and retrieval triggered the first trial. […] Training began with the stimulus duration set at 10 sec, a limited hold period of 5 sec and an ITI of 5 sec. […] Sessions ended when 40 minutes had lapsed or 100 trials had been completed.
Upon meeting the performance criteria, animals were assessed in the vSD version of the task where the following stimulus durations were presented in a pseudorandom manner: 0.3, 0.6 and 0.9 sec. Later, subjects were assessed in the vITI version where 2.5, 5.0 and 10.0 sec ITIs were employed in a pseudorandom manner. Performance parameters measured were: % hit ((# correct/(# correct+# incorrect including omissions))×100); % correct ((# correct/(# correct+# incorrect excluding omissions))×100); premature responses (# of nose-pokes into any aperture after trial initiation but before onset of the stimulus light); timeout responses (# of nose pokes into any aperture during a timeout period), perseverative responses (# of nose pokes occurring after the correct response had been made but before reward collection); # of food magazine head entries, omissions and total trials completed. The latency to correct response (time taken from the onset of the nose poke light stimulus to making the correct nose poke response), latency to incorrect response (time taken from onset of nose poke light stimulus to making the incorrect nose poke response), and latency to reward (i.e., the magazine latency, time taken from making a correct nose poke response to retrieving the reward from the magazine) was also recorded.
Drug doses and vehicle were administered in a pseudorandom fashion. Drug or vehicle sessions were performed 1-2 times per week with maintenance training (behavioral testing without drug or vehicle injections) interspersed.
All data were collated and entered into Microsoft Excel spreadsheets. The data were subsequently imported into StatView 5.0 for statistical analyses. One and two factor analysis of variance (ANOVA) tests were used with repeated measures when indicated, followed by Fisher LSD or Student Newman Keuls as post-hoc tests. All results were expressed as the mean (±S.E.M.). Differences between means from experimental groups were considered significant at the p<0.05 level. The statistical F values and degrees of freedom associated with the two factor ANOVA analyses are provided in the text of this report. Please refer to the statistical reports in the appendices for the values associated with one factor ANOVAs for the overall means and overall total values.

[1] = 0.04 μM nominal, sumatriptan, IC50 determination, Table 122
[2] = 0.12 μM nominal, sumatriptan, IC50 determination, Table 122
[3] = 1.11 μM nominal, sumatriptan, IC50 determination, Table 122
[4] = 3.00 μM nominal, sumatriptan, Table 121
[5] = 10.00 μM nominal, sumatriptan, IC50 determination, Table 122
[6] = 30.00 μM nominal, sumatriptan, IC50 determination, Table 122
[7] = 30.00 μM nominal, sumatriptan, Table 121
[8] = 0.14 μM nominal, 0.09 μM NSB corrected, follow-up assay
[9] = 1.24 μM nominal, 0.86 μM NSB corrected, follow-up assay
[10] = 10.00 μM nominal, 6.60 μM NSB corrected
[11] = 11.11 μM nominal, 7.89 μM NSB corrected, follow-up assay
[12] = 33.33 μM nominal, 24.33 μM NSB corrected, follow-up assay
[13] = 100.00 μM nominal, 77.00 μM NSB corrected
[14] = 100.00 μM nominal, 100.00 μM NSB corrected, follow-up assay
[15] = […] nominal, 1.89 μM NSB corrected, follow-up assay

OC1(c2ccc(Cl)cc2)c2ccccc2C2=NCCN21 (centres unmarked) [Compound A, 5-(4-chlorophenyl)-2,3-dihydroimidazo[1,2-b]isoindol-5-ol, reference compound]
IC50 (OCT1): 2310 nM
Relative transporter specific accumulation (OCT1; [1]): 91.36 ± 5.98 % of control
Transporter specific accumulation (OCT1; [1]): 881.00 ± 27.83 cpm
Relative transporter specific accumulation (OCT1; [2]): 73.95 ± 5.69 % of control
Transporter specific accumulation (OCT1; [2]): 713.17 ± 36.62 cpm
Relative transporter specific accumulation (OCT1; [3]): 65.12 ± 6.84 % of control
Transporter specific accumulation (OCT1; [3]): 628.00 ± 55.27 cpm
Relative transporter specific accumulation (OCT1; [4]): 51.27 ± 1.85 % of control
Transporter specific accumulation (OCT1; [4]): 484.33 ± 16.61 cpm
Relative transporter specific accumulation (OCT1; [5]): 25.23 ± 3.64 % of control
Transporter specific accumulation (OCT1; [5]): 243.33 ± 32.16 cpm
Relative transporter specific accumulation (OCT1; [6]): 14.03 ± 4.75 % of control
Transporter specific accumulation (OCT1; [6]): 135.33 ± 45.14 cpm
Relative transporter specific accumulation (OCT1; [7]): 15.00 ± 1.09 % of control
Transporter specific accumulation (OCT1; [7]): 141.67 ± 10.22 cpm
inhibition at 10 µM (OCT1; human, Maximum % inhibition, OCT1, HEK293 cells, sumatriptan (10 μM), NIO: no inhibition observed): 86%
inhibition at 0.04 μM (OCT1; human, Relative Inhibition, 0.04 μM nominal, sumatriptan, IC50 determination, Table 122): 9%
inhibition at 0.12 μM (OCT1; human, Relative Inhibition, 0.12 μM nominal, sumatriptan, IC50 determination, Table 122): 26%
inhibition at 1.11 μM (OCT1; human, Relative Inhibition, 1.11 μM nominal, sumatriptan, IC50 determination, Table 122): 35%
inhibition at 10 µM (OCT1; human, Relative Inhibition, 10.00 μM nominal, sumatriptan, IC50 determination, Table 122): 75%
inhibition at 30 μM (OCT1; human, Relative Inhibition, 30.00 μM nominal, sumatriptan, IC50 determination, Table 122): 86%
inhibition at 3 μM (OCT1; human, Relative inhibition, 3.00 μM nominal, sumatriptan, Table 121): 49%
inhibition at 30 μM (OCT1; human, Relative inhibition, 30.00 μM nominal, sumatriptan, Table 121): 85%

COCCOC1(c2ccc(Cl)cc2)c2ccccc2C2=NCCN21 (centres unmarked) [Compound I-4]
% hit rate (Wistar rats): decrease in the % hit rate
% correct (Wistar rats): no statistically significant dose-related effects
Magazine Head Entries (Wistar rats): decreases in the number of premature responses, timeout responses, and magazine head entries
Omissions (Wistar rats): increase in the number of omissions
number of trials completed (Wistar rats): decreases in the number of trials completed
perseverative responses (Wistar rats): no statistically significant effects on perseverative responses
premature responses (Wistar rats): the higher 3 doses of Compound I-4 were associated with a decrease
response latencies (correct, incorrect) (Wistar rats): increases in the response latencies
reward latencies (Wistar rats): some increases in the reward latencies, but they were not statistically significant
timeout responses (Wistar rats): decreases in the number of premature responses, timeout responses, and magazine head entries

Clc1ccc(C2(OCC3OCCO3)c3ccccc3C3=NCCN32)cc1 (centres unmarked) [Compound I-19]
Relative inhibition (OCT1; [8]): 16%
Relative transporter specific accumulation (OCT1; [8]): 84.03 ± 3.76 % of control
Transporter specific accumulation (OCT1; [8]): 896.33 ± 19.14 cpm
Relative inhibition (OCT1; [9]): 39%
Relative transporter specific accumulation (OCT1; [9]): 61.16 ± 2.59 % of control
Transporter specific accumulation (OCT1; [9]): 652.33 ± 10.37 cpm
Relative inhibition (OCT1; [10]): 71%
Relative transporter specific accumulation (OCT1; [10]): 29.35 ± 0.48 % of control
Transporter specific accumulation (OCT1; [10]): 930.00 ± 10.03 cpm
Relative inhibition (OCT1; [11]): 73%
Relative transporter specific accumulation (OCT1; [11]): 27.13 ± 1.77 % of control
Transporter specific accumulation (OCT1; [11]): 289.33 ± 15.11 cpm
Relative inhibition (OCT1; [12]): 86%
Relative transporter specific accumulation (OCT1; [12]): 14.47 ± 0.94 % of control
Transporter specific accumulation (OCT1; [12]): 154.33 ± 8.03 cpm
Relative inhibition (OCT1; [13]): 92%
Relative transporter specific accumulation (OCT1; [13]): 8.17 ± 0.48 % of control
Transporter specific accumulation (OCT1; [13]): 259.00 ± 14.94 cpm
Relative inhibition (OCT1; [14]): 92%
Relative transporter specific accumulation (OCT1; [14]): 7.84 ± 1.11 % of control
Transporter specific accumulation (OCT1; [14]): 83.67 ± 11.38 cpm
maximum inhibition of OCT1-mediated sumatriptan accumulation (OCT1; 2-concentration assay, 100 μM (Compound A 30 μM)): 92%
Maximum % inhibition (OCT1; OCT1, HEK293 cells, sumatriptan (10 μM), NIO: no inhibition observed): 92%
Relative inhibition (OCT1; [15]): 55%
Relative transporter specific accumulation (OCT1; [15]): 45.47 ± 2.44 % of control
Transporter specific accumulation (OCT1; [15]): 485.00 ± 17.73 cpm
maximum inhibition of OCT1-mediated sumatriptan accumulation (OCT1; follow-up assay): 92%
IC50 (OCT1; follow-up assay, NSB-corrected concentrations for Compound I-19): 3320 nM
% hit rate (Wistar rats): dose-dependent decrease in the % hit rate
% correct (Wistar rats): no statistically significant dose-related effects
Magazine Head Entries (Wistar rats): decreased in a dose-dependent manner
Omissions (Wistar rats): increase in the number of omissions
number of trials completed (Wistar rats): decreases in the number of trials completed
perseverative responses (Wistar rats): very modest reduction in the number of perseverative responses
premature responses (Wistar rats): decrease in the number of premature responses
response latencies (correct, incorrect) (Wistar rats): very modest increases in the response latencies
reward latencies (Wistar rats): some increases in the reward latencies, but they were not statistically significant
timeout responses (Wistar rats): decrease in the number of premature responses, timeout responses, magazine head entries, and perseverative responses
